Laboratory results reported in the CheMixHub viscosity set.
“And” between values parts separate entries of the source, which are not always exact repeats. Equal values may be shown once.

Test: xn = mol fraction of the nth substance listed

C1CCOC1 + CC(C)O
101 kPa
Conditions	viscosity
298.15 K, x1 = 0.05	1.706 mPa·s
298.15 K, x1 = 0.1	1.445 mPa·s
298.15 K, x1 = 0.15	1.248 mPa·s
298.15 K, x1 = 0.2001	1.113 mPa·s
298.15 K, x1 = 0.25	0.988 mPa·s
298.15 K, x1 = 0.3	0.896 mPa·s
298.15 K, x1 = 0.35	0.812 mPa·s
298.15 K, x1 = 0.4	0.752 mPa·s
298.15 K, x1 = 0.45	0.703 mPa·s
298.15 K, x1 = 0.5	0.659 mPa·s and 0.6917 mPa·s
298.15 K, x1 = 0.55	0.623 mPa·s
298.15 K, x1 = 0.6	0.594 mPa·s
298.15 K, x1 = 0.65	0.567 mPa·s
298.15 K, x1 = 0.7	0.545 mPa·s
298.15 K, x1 = 0.75	0.526 mPa·s
298.15 K, x1 = 0.8	0.511 mPa·s
298.15 K, x1 = 0.85	0.497 mPa·s
298.15 K, x1 = 0.9	0.488 mPa·s
298.15 K, x1 = 0.95	0.48 mPa·s
298.15 K, x2 = 0.1211	0.49 mPa·s
298.15 K, x2 = 0.2273	0.525 mPa·s
298.15 K, x2 = 0.3055	0.556 mPa·s
298.15 K, x2 = 0.3798	0.587 mPa·s
298.15 K, x2 = 0.4846	0.654 mPa·s
298.15 K, x2 = 0.5812	0.745 mPa·s
298.15 K, x2 = 0.6948	0.899 mPa·s
298.15 K, x2 = 0.7237	0.963 mPa·s
298.15 K, x2 = 0.8181	1.256 mPa·s
298.15 K, x2 = 0.9031	1.571 mPa·s
298.15 K, x2 = 0.955	1.803 mPa·s
303 K, x1 = 0.0983	1.07 mPa·s
303 K, x1 = 0.2085	0.86 mPa·s
303 K, x1 = 0.2911	0.71 mPa·s
303 K, x1 = 0.3728	0.58 mPa·s
303 K, x1 = 0.5014	0.56 mPa·s
303 K, x1 = 0.5976	0.54 mPa·s
303 K, x1 = 0.7483	0.48 mPa·s
303 K, x1 = 0.8001	0.47 mPa·s
303 K, x1 = 0.8939	0.45 mPa·s
308.15 K, x1 = 0.05	1.313 mPa·s
308.15 K, x1 = 0.1	1.142 mPa·s
308.15 K, x1 = 0.15	1.009 mPa·s
308.15 K, x1 = 0.2001	0.909 mPa·s
308.15 K, x1 = 0.25	0.824 mPa·s
308.15 K, x1 = 0.3	0.755 mPa·s
308.15 K, x1 = 0.35	0.697 mPa·s
308.15 K, x1 = 0.4	0.646 mPa·s
308.15 K, x1 = 0.45	0.606 mPa·s
308.15 K, x1 = 0.5	0.576 mPa·s
308.15 K, x1 = 0.55	0.549 mPa·s
308.15 K, x1 = 0.6	0.526 mPa·s
308.15 K, x1 = 0.65	0.507 mPa·s
308.15 K, x1 = 0.7	0.489 mPa·s
308.15 K, x1 = 0.75	0.474 mPa·s
308.15 K, x1 = 0.8	0.461 mPa·s
308.15 K, x1 = 0.85	0.452 mPa·s
308.15 K, x1 = 0.9	0.444 mPa·s
308.15 K, x1 = 0.95	0.44 mPa·s
313 K, x1 = 0.0983	0.86 mPa·s
313 K, x1 = 0.2085	0.7 mPa·s
313 K, x1 = 0.2911	0.61 mPa·s
313 K, x1 = 0.3728	0.54 mPa·s
313 K, x1 = 0.5014	0.48 mPa·s
313 K, x1 = 0.5976	0.46 mPa·s
313 K, x1 = 0.7483	0.45 mPa·s
313 K, x1 = 0.8001	0.43 mPa·s
313 K, x1 = 0.8939	0.43 mPa·s

CC[N+](CC)(CC)CC.Cc1ccc(S(=O)(=O)[O-])cc1 + CC(O)CO
101 kPa, x1 = 0.2
Conditions	viscosity [mPa·s]
298.15 K	66.9
303.15 K	51.2
308.15 K	39.8
313.15 K	31.6
318.15 K	25.5
323.15 K	20.9

Cc1ccc(S(=O)(=O)O)cc1 + c1c[nH]cn1
viscosity, 101.33 kPa
Conditions	303.11 K	303.14 K	313.12 K	313.14 K	323.13 K	323.14 K
x2 = 0.78	43.59 mPa·s	–	27.71 mPa·s	–	18.65 mPa·s	–
x2 = 0.8	54.18 mPa·s	41.78 mPa·s	34.32 mPa·s	26.53 mPa·s	–	20.96 mPa·s and 17.62 mPa·s
